Key:
14-3-3σ/C-RAF259 [1] = target: T1, 14-3-3σ/C-RAF259 (Homo sapiens, UniProt P31947); assay: Fluorescence anisotropy (FA) compound titration; format: binding; conditions: 10 nM C-RAF259-FAM 10-mer, 5 μΜ 14-3-3σ, overnight; for EC50: read-out: Compound titrations EC50 value C-RAF259
Procedure: (§1) In analogy to our previous work, two orthogonal assays were used for screening (Figure S2). […] Dose responses of compounds were performed in the absence and presence of the C-RAF259 phospho-peptide to distinguish between neutral binders and cooperative molecular glues. The experiment was performed as a time course, with measurements every 8 h, after an 1 h incubation. Additionally, the compounds were tested in a fluorescence anisotropy (FA) assay in the presence of the 5-carboxyfluorescein-(FAM)-labeled C-RAF259 peptide. […] The full dose–response data for all compounds are available in the SI (Tables S2–S5, Figures S5–S8, Figures S15–S18, Figures S25–S32, Figures S37–S39). The dose–response data from both assays were also visually compared in the form of bar graphs. […] For FA experiments, the EC50 values from the overnight measurement were calculated and plotted as bar graphs showing the […] log EC50 value (pEC50). Compounds acting as MGs were expected to show increases in both types of bar graphs.
(§2) transferred in the assay plates.
(§3) The reacton mixtures were incubated
(§4) dispensed in the assay plates.
(§5) incubaton at room temperature .

14-3-3σ/C-RAF259 [2] = target: T1, 14-3-3σ/C-RAF259; assay: Intact mass spectrometry assay with C-RAF259 phospho-peptide; format: binding; set-up: full-length for mass spectrometry and fluorescence anisotropy assays; made in house; host or cells: E. coli Rosetta 2(DE3)pLysS (14-3-3σ); peptides from Elim Biopharmaceuticals; conditions: 1 μM compound, 100 nM 14-3-3σ, 18 µM peptide
Procedure: as §1, §2, §3, §4, §5

14-3-3σ/C-RAF259 [3] = target: T1, 14-3-3σ/C-RAF259; assay: FA protein titration, C-RAF259 peptide; conditions: appKd DMSO / appKd compound
14-3-3σ = target: T2, 14-3-3σ (Homo sapiens, UniProt P31947); assay: Intact mass spectrometry assay, apo (no peptide); format: binding; set-up: full-length for mass spectrometry and fluorescence anisotropy assays; made in house; host or cells: E. coli Rosetta 2(DE3)pLysS, pPROEX HTb vector; conditions: 1 μM compound, 100 nM 14-3-3σ
T2 sequence (P31947 1-248): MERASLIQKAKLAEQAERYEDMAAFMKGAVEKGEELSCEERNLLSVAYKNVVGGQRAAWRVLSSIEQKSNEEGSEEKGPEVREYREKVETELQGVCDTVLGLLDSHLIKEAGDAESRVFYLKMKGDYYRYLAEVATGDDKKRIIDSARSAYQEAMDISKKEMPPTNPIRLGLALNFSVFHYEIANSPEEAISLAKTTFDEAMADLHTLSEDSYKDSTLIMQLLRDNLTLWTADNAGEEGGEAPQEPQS
Procedure: as §1, §2, §3, §4, §5

Row | SMILES | EC50 (14-3-3σ/C-RAF259 [1]) | % bound, C-RAF259 (11mer), 1h (14-3-3σ/C-RAF259 [2]) | % bound, C-RAF259 (11mer), 8h (14-3-3σ/C-RAF259 [2]) | % bound, C-RAF259 (11mer), 16h (14-3-3σ/C-RAF259 [2]) | % bound, C-RAF259 (11mer), 24h (14-3-3σ/C-RAF259 [2]) | Fold stabilization (100 µM compound), C-RAF259 (10mer) (14-3-3σ/C-RAF259 [3]) | % bound, APO, 1h (14-3-3σ) | % bound, APO, 8h (14-3-3σ) | % bound, APO, 16h (14-3-3σ) | % bound, APO, 24h (14-3-3σ) | Compound titrations EC50 value C-RAF259 (14-3-3σ/C-RAF259 [1])
1 | O=C(CCl)NCC1CCN(S(=O)(=O)c2ccc(F)cc2)CC1 [Compound 11] | 17 ± 3 µM | 6.9% | 15% | 26% | 50.3% | 4 fold | 0% | 1.5% | 4.7% | 6.9% | 
2 | O=C(CCl)NCC1CCN(S(=O)(=O)c2ccc(Cl)cc2)CC1 [Compound 12] | 3 ± 1 µM | 12.1% | 32.8% | 47.8% | 64.4% | 22 fold | 1% | 1.5% | 2.9% | 4.3% | 
3 | O=C(CCl)NCC1CCN(S(=O)(=O)c2ccc(C(F)(F)F)cc2)CC1 [Compound 18] | 17 ± 1 µM | 8.2% | 17.9% | 28.4% | 46.8% | 15 fold | 0% | 0.9% | 6.5% | 12.7% | 
4 | O=C(CCl)NCC1CCN(S(=O)(=O)c2ccc(OC(F)(F)F)cc2)CC1 [Compound 19] | 13 ± 3 µM | 20.5% | 41.3% | 69.5% | 91.3% | 14 fold | 0% | 0.5% | 2.5% | 6.5% | 
5 | O=Cc1ccc(S(=O)(=O)N2CCC(CNC(=O)CCl)CC2)cc1 [Compound 21] | 5 ± 1 µM | 2.9% | 6.5% | 10.7% | 32.2% | 9 fold |  | 2.9% | 4.4% | 7.4% | 
6 | Cc1ccc(S(=O)(=O)N2CCC(CNC(=O)CCl)CC2)cc1 [Compound 24] | 14 ± 1 µM | 7.3% | 13.7% | 26.7% | 51.8% | 21 fold | 0% | 0.5% | 0.5% | 1.5% | 
7 | O=C(CCl)NCC1CCN(S(=O)(=O)c2ccc(F)c(Cl)c2)CC1 [Compound 30] | 12 ± 2 µM | 11% | 24.8% | 41.8% | 60.3% | 3 fold | 1% | 2.5% | 6.5% | 22.5% | 
8 | O=C(CCl)NCC1CCN(S(=O)(=O)c2ccc(Cl)c(C(F)(F)F)c2)CC1 [Compound 31] | 8 ± 1 µM |  | 38.1% | 59.1% | 81.4% | 2 fold | 0.9% | 1.9% | 2.5% | 3.8% | 
9 | COc1ccc(S(=O)(=O)N2CCC(CNC(=O)CCl)CC2)cc1F [Compound 33] | 9 ± 1 µM | 7.7% | 18.5% | 31.8% | 50.3% | 13 fold | 0% | 0% | 0.9% | 0.9% | 
10 | O=C(CCl)NCC1CCN(S(=O)(=O)c2ccc(Br)cc2F)CC1 [Compound 36] | 25 ± 2 µM | 20.6% | 41.1% | 69.5% | 91.7% | 18 fold | 0% | 0.9% | 2.9% | 4.5% | 
11 | O=C(CCl)NCC1CCN(S(=O)(=O)c2ccc(Br)c(F)c2F)CC1 [Compound 38] | 2 ± 1 µM | 28% | 43.9% | 61.9% | 83.3% | 39 fold | 0% | 0.9% | 2.9% | 4.4% | 
12 | O=C(CCl)NCC1CCN(S(=O)(=O)c2cc(F)c(Br)cc2F)CC1 [Compound 39] | 17 ± 3 µM | 39.3% | 64.6% | 78.1% | 96.7% | 7 fold | 0% | 1.9% | 3.8% | 3.8% | 
13 | O=C(CCl)N1CC2CCC1CC2NS(=O)(=O)c1ccc(Br)c(F)c1 (centres unmarked) [Compound 61] | 78 ± 7 µM | 37.1% | 68% | 80.9% | 83.3% |  | 5.2% | 13.3% | 21.8% | 36.8% | 
14 | O=C(CCl)N1CC2(CC(NS(=O)(=O)c3ccc(Br)c(F)c3)CO2)C1 (centres unmarked) [Compound 67] | 14 ± 1 µM | 15% | 30.4% | 55.6% | 81.5% |  | 2.9% | 9.1% | 15.9% | 23% | 
15 | O=C(CCl)NCc1ccc(NS(=O)(=O)c2ccc(Br)c(F)c2)cc1 [Compound 73] | > 1000 µM | 1.9% | 2.9% | 12.1% | 31% |  | 0% | 1.5% | 1.5% | 3.8% | 
16 | O=C(C(Cl)Cl)N1CC2(CCN(S(=O)(=O)c3ccc(Br)c(F)c3)CC2(F)F)C1 [Compound 74] | > 1000 µM | 0% | 0% | 0% | 4.7% |  | 0% | 0% | 0% | 0% | completely inactive
17 | C=C(F)C(=O)N1CC2(CCN(S(=O)(=O)c3ccc(Br)c(F)c3)CC2(F)F)C1 [Compound 75] | > 1000 µM | 0% | 0% | 0% | 2.9% |  | 0% | 0% | 0% | 0% | completely inactive
18 | O=C(CCl)N1CC[C@]2(CCN(S(=O)(=O)c3ccc(Br)c(F)c3)C2)C1 [Compound 89] | > 250 µM | 43% | 65.8% | 82% |  |  | 5.6% | 14.5% | 36.2% | 53.9% | 

From publication PMC12903857
